Assay results published in US6645996B1, “Physiologically active substances” (Mercian Corporation and Eisai Co., Ltd., priority 1998, dated 2003).

Columns and labels:
[1] = system: Endothelial cells derived from human umbilical vein (HUVEC); experiment: Inhibitory effect of growth of endothelial cells (MTT method); format: cell-based; details: three days
Method: Endothelial cells derived from human umbilical vein (HUVEC; manufactured by Sanko Junyaku) incubated in an EGM medium (manufactured by Sanko Junyaku) were adjusted to 1×10^4 cells/ml and each 100 μl were separately placed on a 96-well plate. After incubating overnight, 100 μl of medium containing sample were added thereto followed by incubating for three days. The cell numbers at that time were measured by MTT method. That is, 50 μl of PBS solution containing 0.33% of 3-(4,5-dimethylthiazol-2-yl)-2,5-diphenyltetrazolium bromide (MTT) was added thereto and incubation was continued for further 3-4 hours. After the supernatant liquid of the culture was removed, 100 μl of DMSO was added to dissolve a formazane which was formed in the cells and the absorbance at the wave length of 460 nm was measured by use of plate reader. The IC50 value is defined as a concentration that the absorbance was 50% of that observed when no sample was added.

[2] = Solubility (analysis data); format: physicochemical
[3] = system: aorta pieces of rat; experiment: Inhibition of capillary formation in rat aorta model (aorta pieces cultured in collagen gel); format: cell-based; details: 7th day from addition of sample
Method: In a method of screening the antiangiogenic effect, the degree of inhibition to the formation of lumens observed when an aortic fragment of a rat is cultured in a collagen gel was selected as an indicator (Nicosia R. F., Lab. Invest., 63, 115, 1990). Also, for the purpose of analyzing the mechanism of action of the antiangiogenic effect of the resulting compound, measurements were made concerning the effect of inhibiting the growth of endothelial cells by using endothelial cells derived from the human umbilical cord vein and the effect of inhibiting the expression of an adhesion molecules on endothelial cells.
The antiangiogenic potency was evaluated by the inhibition of capillary formation in rat aorta model in which aorta pieces of rat were cultured in collagen gel. That is, the aorta excised from male rat of Sprague-Dawley strain (8-12 weeks age) was washed with a Hanks' solution so that fat tissues around there were removed minutely. The aorta was incised to prepare pieces of 2 mm square and they were allowed to stand in a 24-well plate holding the endothelial cells upside. Then, 500 μl of neutralized Type I collagen (Cell Matrix Type I-A; manufactured by Nitta Gelatin) were poured over each well and allowed to stand at room temperature for about 20 minutes in a clean bench to solidify the gel. After gelling, 500 μl of MCDB 131 medium (manufactured by Chlorella Kogyo) were added thereto followed by incubating in a Co2 incubator (5% CO2) at 37° C. On the next day, the culture medium was exchanged with 500 μl of MCDB 131 medium containing the sample and the incubation was continued. And, at the stage of the 7th day from the addition of the sample, numbers of capillaries formed around the aorta were counted. The IC50 value of each sample is defined as a concentration that the number of blood capillaries is 50% of that observed when no sample was added.

[4] = system: VCAM-1; experiment: Inhibition of TNFα-induced expression of adhesion molecule VCAM-1 on endothelial cells; format: cell-based, human; details: HUVEC, TNFα 1 ng/ml, 4 hours
Method: (§1) Endothelial cells derived from human umbilical vein (HUVEC) were cultured on a 96-well plate until they were fallen in a confluent state. The culture broth was removed. After 150 μl of a new culture broth was added to each well, 20 μl of a sample solution was added thereto. After 15 minutes, 30 μl of TNFα was added such that the final concentration became 1 ng/ml and it was incubated at 37° C. for 4 hours in a 5% CO2 incubator. Next, the culture broth was removed and the cells were washed twice with a phosphate buffer (PBS). Further, a PBS solution containing 0.025% glutaraldehyde was added and the well was allowed to stand at room temperature for 6 minutes to fix the cells. After the cells were immobilized, they were washed twice with 200 μl of phosphate buffer (PBSA) containing 0.25% BSA. Thereafter 100 μl of a PBSA solution containing 1 μg/ml of mouse anti-human VCAM-1 (R&D systems) or a mouse anti-human E-selectin antibody (R&D systems) was added to each well. The well was allowed to stand at room temperature for 30 minutes and then the cells were again washed. A PBSA solution containing 100 μl of peroxidase-conjugated goat anti-mouse antibody (Cosmo Bio Co., Ltd.) was added to the well. Then the well was allowed to stand at room temperature for 30 minutes and thereafter the cells were washed. In succession, 100 μl of 3,3*,5,5*-tetramethylbenzyidine (TMB) substrate solution was added to develop a color. Next, the coloring was stopped by 100 μl of 1M phosphoric acid to measure the absorbance at 450 nm.

[5] = system: E-selectin; experiment: Inhibition of TNFα-induced expression of adhesion molecule E-selectin on endothelial cells; format: cell-based, human; details: HUVEC, TNFα 1 ng/ml, 4 hours
Method: as §1

[6] = Safety of VD1207 analogues, intraperitoneal administration over 4 days; format: in vivo; design: key to Blood (WBC) / Blood (PLAT) / Biochemistry (UN) / Biochemistry (GPT) / Weight (liver) / Weight (kidney) / Weight (lung) / Weight (spleen) / Body weight / Blood (RBC): —: “-” indicates no abnormality; “↑” and “↓” indicate an increase and a decrease, respectively; “↑” and “↓” indicate an increase and a decrease, respectively
Method: Each of VD1207B, C, D, E, F and G2 was continuously administered intraperitoneally at each dose of 1 mg/kg and 2 mg/kg over 4 days to examine the safety of VD1207 analogues.

[7] = 1 mg/kg i.p. 4 days, listed as B
[8] = 2 mg/kg i.p. 4 days, listed as B
[9] = 2 mg/kg i.p. 4 days, listed as E

Row | SMILES | Solubility in ethyl acetate, chloroform and dimethyl sulfoxide [2] | Solubility in neutral water [2] | IC50 (number of blood capillaries 50% of that without sample) [3] | Biochemistry (GPT) ([6]; 1 mg/kg i.p. 4 days) | Biochemistry (UN) ([6]; 1 mg/kg i.p. 4 days) | Blood (PLAT) ([6]; 1 mg/kg i.p. 4 days) | Blood (RBC) ([6]; 1 mg/kg i.p. 4 days) | Blood (WBC) ([6]; 1 mg/kg i.p. 4 days) | Body weight ([6]; 1 mg/kg i.p. 4 days) | Weight (liver) ([6]; 1 mg/kg i.p. 4 days) | Weight (spleen) ([6]; 1 mg/kg i.p. 4 days) | Blood (WBC) ([6]; 2 mg/kg i.p. 4 days) | IC50 (growth of endothelial cells, absorbance 50% of no sample) [1] | also measured
1 | CCC1OC12C(O)CC(C(CC(C)C)C(=O)c1cc(C(=O)C(C)C)c(O)cc1O)OC2O (single isomer, unassigned) [VD1207 A1] | soluble | insoluble |  |  |  |  |  |  |  |  |  |  |  | IC50 (growth of endothelial cells, absorbance 50% of no sample) ([1]; listed as A1): 17.6 µg/mL
2 | CCC1OC12C(O)CC(C(CC(C)C)C(=O)c1cc(C(=O)C(C)C)c(O)cc1O)OC2O (single isomer, unassigned) [VD1207 A2] | soluble | insoluble | 1 µg/mL |  |  |  |  |  |  |  |  |  |  | IC50 (growth of endothelial cells, absorbance 50% of no sample) ([1]; listed as A2): 18.7 µg/mL
3 | CCCC(C(=O)c1cc(C(OC)C(C)C)c(O)c(C=O)c1O)C1CC(O)C2(OC2CC)C(O)O1 (single isomer, unassigned) [VD1207 B] | soluble | insoluble |  | — | — | — | — | — | — | ↑ | — | — |  | IC50 (number of blood capillaries 50% of that without sample) ([3]; listed as B): 0.053 µg/mL; VCAM-1 (IC50 of expression) [4]: 2.48 µg/mL; E-select (IC50 of expression) [5]: 4.0 µg/mL; Weight (kidney) [6, 7]: —; Weight (lung) [6, 7]: —; Biochemistry (GPT) ([6]; 2 mg/kg i.p. 4 days): —; Biochemistry (UN) ([6]; 2 mg/kg i.p. 4 days): —; Blood (RBC) ([6]; 2 mg/kg i.p. 4 days): —; Weight (liver) ([6]; 2 mg/kg i.p. 4 days): ↑; Weight (spleen) ([6]; 2 mg/kg i.p. 4 days): —; Blood (PLAT) [6, 8]: —; Body weight [6, 8]: —; Weight (kidney) [6, 8]: —; Weight (lung) [6, 8]: —; IC50 (growth of endothelial cells, absorbance 50% of no sample) ([1]; listed as B): 0.24 µg/mL
4 | CCC1OC12C(O)CC(C(CC(C)C)C(=O)c1cc(C(OC)C(C)C)c(O)c(C=O)c1O)OC2O (single isomer, unassigned) [VD1207 E] | soluble | insoluble |  | — | — | — | — | — | — | ↑ | — | ↓ |  | IC50 (number of blood capillaries 50% of that without sample) ([3]; listed as E): 0.047 µg/mL; VCAM-1 (IC50 of expression) ([4]; listed as E): 2.59 µg/mL; E-select (IC50 of expression) ([5]; listed as E): 4.44 µg/mL; Weight (lung) ([6]; 1 mg/kg i.p. 4 days): —; Weight (kidney) ([6]; 1 mg/kg i.p. 4 days, listed as E): —; Weight (kidney) [6, 9]: —; Weight (lung) [6, 9]: —; IC50 (growth of endothelial cells, absorbance 50% of no sample) ([1]; listed as E): 0.21 µg/mL
5 | CCCC(C(=O)c1cc(CC(C)C)c(O)c(C=O)c1O)C1CC(O)C2(OC2CCC)C(O)O1 (centres unmarked) [VD1207 G1] | soluble | insoluble | 0.070 µg/mL |  |  |  |  |  |  |  |  |  | 0.11 µg/mL | 
6 | CCC1OC12C(O)CC(C(CC(C)C)C(=O)c1cc(CC(C)C)c(O)c(C=O)c1O)OC2O (centres unmarked) [VD1207 G2] | soluble | insoluble | 0.034 µg/mL | — | — | — | — | — | — | ↑ | — | ↓ | 0.07 µg/mL | Weight (kidney) ([6]; 1 mg/kg i.p. 4 days): —; Weight (lung) ([6]; 1 mg/kg i.p. 4 days): —; Biochemistry (GPT) ([6]; 2 mg/kg i.p. 4 days): —; Biochemistry (UN) ([6]; 2 mg/kg i.p. 4 days): —; Blood (PLAT) ([6]; 2 mg/kg i.p. 4 days): —; Blood (RBC) ([6]; 2 mg/kg i.p. 4 days): —; Body weight ([6]; 2 mg/kg i.p. 4 days): —; Weight (kidney) ([6]; 2 mg/kg i.p. 4 days): —; Weight (liver) ([6]; 2 mg/kg i.p. 4 days): ↑; Weight (lung) ([6]; 2 mg/kg i.p. 4 days): —; Weight (spleen) ([6]; 2 mg/kg i.p. 4 days): —
7 | CCCC(C(=O)c1cc(CC(C)C)c(O)c(C(C)=O)c1O)C1CC(O)C2(OC2CC)C(O)O1 (centres unmarked) [VD1207 H] | soluble | insoluble | 0.38 µg/mL |  |  |  |  |  |  |  |  |  | 0.52 µg/mL | VCAM-1 (IC50 of expression) [4]: 1.06 µg/mL; E-select (IC50 of expression) [5]: 2.48 µg/mL
